Data: PubChem BioAssay (NCI)
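Test compounds were applied to cells in 96-well plates for 48 hours at 5 doses. TGI marks complete inhibition of growth.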

Experiments:
Experiment in all cases: inhibition of tumour cell growth, NCI panel, 48 h
U251 CNS = test system: U251 CNS
CAKI-1 renal = test system: CAKI-1 renal
UO-31 renal = test system: UO-31 renal
SW-620 colon = test system: SW-620 colon
786-0 renal = test system: 786-0 renal
SNB-75 CNS = test system: SNB-75 CNS
MALME-3M melanoma = test system: MALME-3M melanoma
UACC-62 melanoma = test system: UACC-62 melanoma
KM12 colon = test system: KM12 colon
SNB-19 CNS = test system: SNB-19 CNS
MCF7 breast = test system: MCF7 breast
MDA-MB-435 = test system: MDA-MB-435
UACC-257 melanoma = test system: UACC-257 melanoma
TK-10 renal = test system: TK-10 renal
BT-549 breast = test system: BT-549 breast
SK-MEL-28 melanoma = test system: SK-MEL-28 melanoma
IGROV1 ovarian = test system: IGROV1 ovarian
NCI-H226 lung = test system: NCI-H226 lung
NCI-H23 lung = test system: NCI-H23 lung
SK-OV-3 ovarian = test system: SK-OV-3 ovarian

Compound	TGI (U251 CNS) [µM]	TGI (CAKI-1 renal) [µM]	TGI (UO-31 renal) [µM]	TGI (SW-620 colon) [µM]	TGI (786-0 renal) [µM]	TGI (SNB-75 CNS) [µM]	TGI (MALME-3M melanoma) [µM]	TGI (UACC-62 melanoma) [µM]	TGI (KM12 colon) [µM]	TGI (SNB-19 CNS) [µM]	TGI (MCF7 breast) [µM]	TGI (MDA-MB-435) [µM]	TGI (UACC-257 melanoma) [µM]	TGI (TK-10 renal) [µM]	TGI (BT-549 breast) [µM]	TGI (SK-MEL-28 melanoma) [µM]	TGI (IGROV1 ovarian) [µM]	TGI (NCI-H226 lung) [µM]	TGI (NCI-H23 lung) [µM]	TGI (SK-OV-3 ovarian) [µM]
Cc1c(C)c2c(c(N)c1C#N)C(=O)N(OS(=O)(=O)c1ccccc1)C2=O	49.5	51	> 100	47.2	30.3	> 100	31.8	61.4	> 100	> 100	> 100	58.8	68	37.2	39.7	67.3	37.7	43.3		
CCOC(=O)c1[nH]cnc1/N=N/N(C)N	> 100	61.2	> 100	> 100	> 100	> 100	> 100	> 100	14		> 100	> 100	> 100	> 100	> 100	> 100	> 100	> 100	> 100	> 100
Nc1ccccc1/C=C\c1ccccc1	> 100		> 100	> 100	> 100	> 100	> 100	> 100	> 100	> 100	> 100	> 100	> 100	> 100	> 100	> 100	> 100	> 100	> 100	> 100
NNC(=O)Cc1cccnc1	> 100	> 100	> 100	> 100	> 100	> 100	> 100	> 100	> 100	> 100	> 100	> 100	> 100	> 100	> 100	> 100	> 100		> 100	> 100
CCOP(=O)(CC1CC(O)(CNc2cc(Cl)nc(N)n2)C1)OCC (stereo unspecified)	> 100	> 100	> 100	> 100	> 100	> 100	> 100	> 100	> 100		> 100	> 100	> 100	> 100	> 100	> 100	> 100	> 100	> 100	> 100
Cc1ccc(C(=O)Cc2nc3ncccc3[nH]c2=O)cc1	52.7	> 100	> 100	> 100	45.3		72.3	> 100	> 100	> 100	> 100	39.8	> 100	57.4	92.5	87.4	> 100	66.5	42.3	45.4
COc1cc2c(cc1OC)C1=Cc3ccc(OC)c(OC)c3C(C#N)N1CC2 (stereo unspecified)	> 100	> 100	> 100	> 100	> 100	33.8	82.9	45.5	58.7	> 100	> 100	82.3	47.4	> 100	63.2	> 100		> 100	> 100	> 100
CC(C)=CC(C)C(C(O)CCC1(c2ccoc2)OCCO1)S(=O)(=O)c1ccccc1 (stereo unspecified)	> 100	> 100	> 100	> 100	> 100	> 100	> 100		> 100	> 100	> 100	> 100	> 100	> 100	> 100	> 100	> 100	> 100	> 100	> 100
COC(=O)c1c(O)ccc2c1c1c(n2Cc2ccc(OC)cc2)C(=O)c2ccccc2C1=O	23.4	86.4	29.2	45.6	28.5	85.8	64.3		45.3	> 100	26.7	22.3	94.3	> 100	3.06	37.4	21.4	25.8	32.2	48.1
CC1(CCc2ccccc2)CC1(Br)Br (stereo unspecified)	> 100	> 100	> 100	> 100	57.5	> 100	68.3	> 100	> 100	> 100	> 100	60.1	83.6		> 100	> 100	> 100	77.1	> 100	> 100
CCOC(=O)CN=C1Nc2ccccc2C(=O)N2CSCC12 (stereo unspecified)	> 100	> 100	> 100	> 100	> 100	> 100	> 100	> 100	> 100	> 100	> 100	> 100	> 100	> 100	> 100	> 100	> 100	> 100		> 100
C=C(C)[C@@H]1CC[C@]2(CO)CC[C@]3(C)[C@H](CC[C@@H]4[C@@]5(C)CC[C@H](O)C(C)(C)[C@@H]5CC[C@]43C)[C@@H]12	24.1	29	26	43.5	27.1	28.9	> 100		> 100		45.5	57.1	54.9	38	39.8	> 100	> 100	> 100	> 100	
Fc1ccc(C2NC(=S)NC3=C2CCOc2c3ccc3ccccc23)cc1 (stereo unspecified)		> 100	> 100	> 100	> 100	> 100	> 100		> 100	> 100	> 100	43.4	> 100	> 100	> 100		> 100		> 100	> 100
